Test results: patent US10221197B2, “Phosphatidylinositol 3-kinase inhibitors” (Gilead Sciences, Inc., priority 2014, dated 2019)

Columns and labels:
Assay type in all cases: biochemical
PI3Kβ = PI3Kβ (Homo sapiens (Human), UniProt P42338); assay: TR-FRET enzymatic assay of PI3K isoforms (PI3Kβ); conditions: TR-FRET, 2×Km ATP, 2 μM PIP2, incubated for 30 minutes at 25° C.; read-out: β IC50
Method: (§1) The compounds of formula (I) were characterized for their enzymatic activity against the PI3K isoforms. Certain compounds of the present application, including certain compounds of formula (II) and (III) were also characterized for their enzymatic activity against PI3K isoforms. The activities were measured using a time-resolved fluorescence resonance energy transfer (TR-FRET) assay.

PI3Kδ = PI3Kδ (Homo sapiens (Human), UniProt O00329); assay: TR-FRET enzymatic assay of PI3K isoforms (PI3Kδ); conditions: 2×Km ATP, 2 μM PIP2, incubated for 30 minutes at 25° C., read-out: δ IC50
PI3Kδ, sequence (O00329 whole entry, canonical isoform): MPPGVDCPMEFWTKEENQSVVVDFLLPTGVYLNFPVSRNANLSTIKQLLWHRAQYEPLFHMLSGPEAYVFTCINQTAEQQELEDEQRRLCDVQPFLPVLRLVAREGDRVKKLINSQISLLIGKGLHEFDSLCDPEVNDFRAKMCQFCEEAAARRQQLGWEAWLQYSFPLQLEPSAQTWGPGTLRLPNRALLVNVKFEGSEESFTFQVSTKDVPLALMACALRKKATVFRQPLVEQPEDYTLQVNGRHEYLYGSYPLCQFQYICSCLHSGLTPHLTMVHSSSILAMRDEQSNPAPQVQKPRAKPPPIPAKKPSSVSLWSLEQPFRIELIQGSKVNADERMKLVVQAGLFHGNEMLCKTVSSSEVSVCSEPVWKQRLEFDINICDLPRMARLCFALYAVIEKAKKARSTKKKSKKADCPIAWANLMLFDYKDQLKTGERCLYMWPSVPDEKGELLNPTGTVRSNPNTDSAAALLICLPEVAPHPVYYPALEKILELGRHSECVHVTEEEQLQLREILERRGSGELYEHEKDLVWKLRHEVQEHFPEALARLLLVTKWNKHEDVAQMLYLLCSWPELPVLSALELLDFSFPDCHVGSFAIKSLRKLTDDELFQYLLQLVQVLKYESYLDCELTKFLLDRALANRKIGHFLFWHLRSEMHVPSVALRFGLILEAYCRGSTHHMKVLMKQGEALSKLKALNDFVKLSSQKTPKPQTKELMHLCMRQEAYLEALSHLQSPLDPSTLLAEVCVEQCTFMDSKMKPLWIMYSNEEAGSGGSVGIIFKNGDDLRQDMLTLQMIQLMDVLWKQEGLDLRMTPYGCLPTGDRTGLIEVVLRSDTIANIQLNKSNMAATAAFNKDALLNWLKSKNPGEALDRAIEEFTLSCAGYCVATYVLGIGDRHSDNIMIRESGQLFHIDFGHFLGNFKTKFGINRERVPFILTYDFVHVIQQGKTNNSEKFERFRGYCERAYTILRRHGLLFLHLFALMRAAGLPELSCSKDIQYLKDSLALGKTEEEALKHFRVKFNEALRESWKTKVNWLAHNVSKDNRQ
PI3Kδ, sequence (P27986 whole entry partner, canonical isoform): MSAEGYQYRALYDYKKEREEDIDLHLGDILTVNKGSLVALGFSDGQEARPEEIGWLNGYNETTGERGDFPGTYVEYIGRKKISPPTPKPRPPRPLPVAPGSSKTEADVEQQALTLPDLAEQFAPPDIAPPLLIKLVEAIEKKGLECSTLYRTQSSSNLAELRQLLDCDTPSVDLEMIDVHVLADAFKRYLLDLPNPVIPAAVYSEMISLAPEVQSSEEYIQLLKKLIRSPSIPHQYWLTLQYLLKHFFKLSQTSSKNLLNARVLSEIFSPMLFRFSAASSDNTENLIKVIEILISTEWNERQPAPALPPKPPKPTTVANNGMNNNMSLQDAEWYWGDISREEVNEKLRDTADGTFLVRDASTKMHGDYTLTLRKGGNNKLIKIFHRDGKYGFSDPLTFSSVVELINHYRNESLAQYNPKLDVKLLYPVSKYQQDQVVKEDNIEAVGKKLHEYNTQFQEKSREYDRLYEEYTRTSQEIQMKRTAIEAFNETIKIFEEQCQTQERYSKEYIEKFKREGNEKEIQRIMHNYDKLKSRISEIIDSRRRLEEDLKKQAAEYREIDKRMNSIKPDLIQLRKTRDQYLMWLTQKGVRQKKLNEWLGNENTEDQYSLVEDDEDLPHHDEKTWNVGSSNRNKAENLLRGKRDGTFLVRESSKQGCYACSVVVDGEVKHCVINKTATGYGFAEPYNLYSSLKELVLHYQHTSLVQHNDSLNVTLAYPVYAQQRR
Method: as §1

PI3Kγ = PI3Kγ (Homo sapiens (Human), UniProt P48736); assay: TR-FRET enzymatic assay of PI3K isoforms (PI3Kγ); conditions: TR-FRET, 2×Km ATP, 2 μM PIP2, PI3Kγ at 2 nM, incubated for 30 minutes at 25° C.; read-out: γ IC50
PI3Kγ, sequence (P48736 whole entry, canonical isoform): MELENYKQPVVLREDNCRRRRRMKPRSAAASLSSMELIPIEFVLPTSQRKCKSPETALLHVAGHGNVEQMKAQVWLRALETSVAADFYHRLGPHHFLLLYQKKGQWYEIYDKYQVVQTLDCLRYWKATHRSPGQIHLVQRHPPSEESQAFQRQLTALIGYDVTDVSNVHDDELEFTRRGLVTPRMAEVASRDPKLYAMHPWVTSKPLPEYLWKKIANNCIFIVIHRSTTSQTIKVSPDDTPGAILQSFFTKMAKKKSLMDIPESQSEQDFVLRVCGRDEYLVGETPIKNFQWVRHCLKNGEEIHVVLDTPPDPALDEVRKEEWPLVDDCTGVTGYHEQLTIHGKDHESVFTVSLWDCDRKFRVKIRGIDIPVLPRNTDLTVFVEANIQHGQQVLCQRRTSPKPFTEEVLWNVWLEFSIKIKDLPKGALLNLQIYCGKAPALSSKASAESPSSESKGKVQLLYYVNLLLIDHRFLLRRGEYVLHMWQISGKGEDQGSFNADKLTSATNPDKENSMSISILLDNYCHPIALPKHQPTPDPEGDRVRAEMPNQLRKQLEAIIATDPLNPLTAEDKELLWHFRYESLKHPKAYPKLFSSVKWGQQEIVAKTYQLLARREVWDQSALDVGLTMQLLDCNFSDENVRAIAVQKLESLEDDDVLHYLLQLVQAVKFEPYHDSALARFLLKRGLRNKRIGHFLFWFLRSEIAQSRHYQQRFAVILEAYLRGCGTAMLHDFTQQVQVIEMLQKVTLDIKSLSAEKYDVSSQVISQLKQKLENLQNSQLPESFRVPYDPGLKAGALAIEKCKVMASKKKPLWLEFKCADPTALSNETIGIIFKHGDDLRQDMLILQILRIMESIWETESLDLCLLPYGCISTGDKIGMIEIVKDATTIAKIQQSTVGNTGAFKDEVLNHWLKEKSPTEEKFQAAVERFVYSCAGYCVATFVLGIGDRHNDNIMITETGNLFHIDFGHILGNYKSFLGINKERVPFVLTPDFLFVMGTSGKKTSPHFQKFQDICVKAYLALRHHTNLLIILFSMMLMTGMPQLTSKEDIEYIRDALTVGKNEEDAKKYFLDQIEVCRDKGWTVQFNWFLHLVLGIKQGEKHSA
PI3Kγ, sequence (Q8WYR1 whole entry partner, canonical isoform): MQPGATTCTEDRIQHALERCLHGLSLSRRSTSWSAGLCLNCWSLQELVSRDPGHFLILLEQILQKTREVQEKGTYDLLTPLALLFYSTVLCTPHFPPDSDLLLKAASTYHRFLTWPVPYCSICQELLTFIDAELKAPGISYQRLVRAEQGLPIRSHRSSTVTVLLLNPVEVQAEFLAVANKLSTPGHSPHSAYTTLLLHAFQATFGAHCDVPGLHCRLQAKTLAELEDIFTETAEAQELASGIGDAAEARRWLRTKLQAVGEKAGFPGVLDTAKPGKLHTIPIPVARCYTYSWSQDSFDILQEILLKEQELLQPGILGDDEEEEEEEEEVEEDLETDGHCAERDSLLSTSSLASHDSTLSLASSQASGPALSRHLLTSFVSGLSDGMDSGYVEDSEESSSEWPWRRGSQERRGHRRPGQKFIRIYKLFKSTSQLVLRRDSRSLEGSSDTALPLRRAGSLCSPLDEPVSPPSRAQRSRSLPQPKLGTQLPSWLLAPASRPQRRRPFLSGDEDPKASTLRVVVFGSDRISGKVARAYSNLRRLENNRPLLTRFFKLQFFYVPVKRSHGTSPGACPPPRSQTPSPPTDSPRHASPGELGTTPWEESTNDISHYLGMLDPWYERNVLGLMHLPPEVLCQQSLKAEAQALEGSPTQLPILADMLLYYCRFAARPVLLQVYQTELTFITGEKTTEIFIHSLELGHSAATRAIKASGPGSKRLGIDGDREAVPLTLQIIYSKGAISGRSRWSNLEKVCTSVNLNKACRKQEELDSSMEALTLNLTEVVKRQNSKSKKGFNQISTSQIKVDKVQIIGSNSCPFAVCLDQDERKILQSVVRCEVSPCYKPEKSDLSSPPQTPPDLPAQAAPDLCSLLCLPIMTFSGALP
Method: as §1

PI3Kβ, sequence (P42338 whole entry, canonical isoform): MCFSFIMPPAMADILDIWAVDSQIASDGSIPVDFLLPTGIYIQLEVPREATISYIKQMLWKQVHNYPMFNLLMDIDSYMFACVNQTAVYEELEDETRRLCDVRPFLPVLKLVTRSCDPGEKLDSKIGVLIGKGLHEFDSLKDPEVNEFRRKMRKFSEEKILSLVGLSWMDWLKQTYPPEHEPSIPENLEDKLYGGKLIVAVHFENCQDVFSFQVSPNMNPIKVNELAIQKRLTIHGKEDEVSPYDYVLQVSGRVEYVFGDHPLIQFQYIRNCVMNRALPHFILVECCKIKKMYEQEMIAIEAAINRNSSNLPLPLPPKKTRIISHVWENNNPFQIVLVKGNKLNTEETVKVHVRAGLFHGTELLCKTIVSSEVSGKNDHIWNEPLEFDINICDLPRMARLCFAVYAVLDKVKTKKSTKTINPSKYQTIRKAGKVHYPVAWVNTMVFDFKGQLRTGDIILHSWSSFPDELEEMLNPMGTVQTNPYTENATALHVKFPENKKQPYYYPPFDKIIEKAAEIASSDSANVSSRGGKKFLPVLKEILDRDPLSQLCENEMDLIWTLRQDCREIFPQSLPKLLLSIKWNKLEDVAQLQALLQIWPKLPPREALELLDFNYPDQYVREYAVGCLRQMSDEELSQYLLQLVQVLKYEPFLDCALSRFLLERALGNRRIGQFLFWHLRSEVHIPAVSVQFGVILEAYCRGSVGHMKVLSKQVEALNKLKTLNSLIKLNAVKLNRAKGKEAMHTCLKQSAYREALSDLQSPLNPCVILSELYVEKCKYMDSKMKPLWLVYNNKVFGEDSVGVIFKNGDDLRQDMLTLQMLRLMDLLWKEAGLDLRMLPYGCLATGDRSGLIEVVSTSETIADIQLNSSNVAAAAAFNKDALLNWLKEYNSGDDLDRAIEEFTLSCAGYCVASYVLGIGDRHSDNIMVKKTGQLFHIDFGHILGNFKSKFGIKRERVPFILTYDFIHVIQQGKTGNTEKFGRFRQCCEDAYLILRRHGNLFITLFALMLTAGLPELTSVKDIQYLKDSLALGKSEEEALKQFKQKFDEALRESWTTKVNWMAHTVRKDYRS
PI3Kβ, sequence (P27986 whole entry partner, canonical isoform): as the sequence (P27986 whole entry partner, canonical isoform) above

Compound | IC50 (PI3Kβ) [nM] | IC50 (PI3Kδ) [nM] | IC50 (PI3Kγ) [nM]
C[C@H](Oc1ncnc2scnc12)c1nc2cccc(Cl)c2c(=O)n1-c1cccc(NC(=O)NCCO)c1 [Compound 158, (S)-1-(3-(5-chloro-4-oxo-2-(1-(thiazolo[5,4-d]pyrimidin-7-yloxy)ethyl)quinazolin-3(4H)-yl)phenyl)-3-(2-hydroxyethyl)urea] | 9 | 4 | 900
N#Cc1c(N)ncnc1N1CCC[C@H]1c1nc2cccc(Cl)c2c(=O)n1-c1cccc(NC(=O)NCC(F)(F)F)c1 [Compound 159, (S)-1-(3-(2-(1-(6-amino-5-cyanopyrimidin-4-yl)pyrrolidin-2-yl)-5-chloro-4-oxoquinazolin-3(4H)-yl)phenyl)-3-(2,2,2-trifluoroethyl)urea] | 42 | 33 | 5600
NC(=O)c1cc(F)cc(-n2c([C@@H](Nc3ncnc(N)c3Cl)C3CC3)nc3cccc(Cl)c3c2=O)c1 [Compound 160, (S)-3-(2-(((6-amino-5-chloropyrimidin-4-yl)amino)(cyclopropyl)methyl)-5-chloro-4-oxoquinazolin-3(4H)-yl)-5-fluorobenzamide] | 2400 | 66 | > 10000
N#Cc1c(N)nc(N)nc1N[C@H](c1nc2cccc(Cl)c2c(=O)n1-c1cc(F)cc(C(N)=O)c1)C1CC1 [Compound 161, (S)-3-(5-chloro-2-(cyclopropyl((2,6-diamino-5-cyanopyrimidin-4-yl)amino)methyl)-4-oxoquinazolin-3(4H)-yl)-5-fluorobenzamide] | 2 | 1 | 70
NC(=O)c1cc(F)cc(-n2c([C@@H](Nc3nc(N)nc(N)c3Cl)C3CC3)nc3cccc(Cl)c3c2=O)c1 [Compound 162, (S)-3-(5-chloro-2-(cyclopropyl((2,6-diamino-5-chloropyrimidin-4-yl)amino)methyl)-4-oxoquinazolin-3(4H)-yl)-5-fluorobenzamide] | 21 | 1 | 2600
NC(=O)c1cncc(-n2c([C@@H](Nc3nc(N)nc(N)c3Cl)C3CC3)nc3cccc(Cl)c3c2=O)c1 [Compound 163, (S)-5-(5-chloro-2-(cyclopropyl((2,6-diamino-5-chloropyrimidin-4-yl)amino)methyl)-4-oxoquinazolin-3(4H)-yl)nicotinamide] | 11 | 2 | 8200
N#Cc1c(N)nc(N)nc1N[C@H](c1nc2cccc(Cl)c2c(=O)n1-c1cncc(C(N)=O)c1)C1CC1 [Compound 164, (S)-5-(5-chloro-2-(cyclopropyl((2,6-diamino-5-cyanopyrimidin-4-yl)amino)methyl)-4-oxoquinazolin-3(4H)-yl)nicotinamide] | 2 | 1 | 420
